Key:
[1] = tested on: HCV chimeric replicon with NS5A of genotype 4a (DQ41878); experiment: Cell-based HCV replicon assay (TaqMan), chimeric replicon genotype 4a (DQ41878); details: Hepatitis C virus, 72 h, read-out: HCV replicon EC50 4a (DQ41878)
Description: (§1) Measurement of inhibition by compounds of the present invention was performed using the HCV replicon system. Several different replicons encoding different HCV genotypes or mutations were used. In addition, potency measurements were made using different formats of the replicon assay, including different ways of measurements and different plating formats. See Jan M. Vrolijk et al., A replicons-based bioassay for the measurement of interferons in patients with chronic hepatitis C, 110 J. VIROLOGICAL METHODS 201 (2003); Steven S. Carroll et al., Inhibition of Hepatitis C Virus RNA Replication by 2′-Modified Nucleoside Analogs, 278(14) J. BIOLOGICAL […] 11979 (2003). However, the underlying principles are common to all of these determinations, and are outlined below.
(§2) Compounds of the present invention were assayed for cell-based anti-HCV activity using the following protocol. Replicon cells were seeded at 5000 cells/well in 96-well collagen I-coated Nunc plates in the presence of the test compound. Various concentrations of test compound, typically in 10 serial 2-fold dilutions, were added to the assay mixture, with the starting concentration ranging from 250 μM to 1 μM. The final concentration of DMSO was 0.5%, fetal bovine serum was 5%, in the assay media. Cells were harvested on day 3 by the addition of 1× cell lysis buffer (Ambion cat #8721). The replicon RNA level was measured using real time PCR (TaqMan® assay). The amplicon was located in 5B. The PCR primers were: 5B.2F, […] (SEQ. ID NO. 1); 5B.2R, […] (SEQ. ID NO. 2); the probe sequence was FAM-labeled […] (SEQ. ID NO. 3). GAPDH RNA was used as endogenous control and was amplified in the same reaction as NS5B (multiplex PCR) using primers and VIC-labeled probe recommended by the manufacturer (PE Applied Biosystem). The real-time RT-PCR reactions were run on ABI PRISM 7900HT Sequence Detection System using the following program: 48° C. for 30 minutes, 95° C. for 10 minutes, 40 cycles of 95° C. for 15 sec, 60° C. for 1 minute. The ΔCT values (CT5B-CTGAPDH) were plotted against the concentration of test compound and fitted to the sigmoid dose-response model using XLfit4 (MDL). […] Alternatively, to quantitate the absolute amount of replicon RNA, a standard curve was established by including serially diluted T7 transcripts of replicon RNA in the Taqman assay. All TaqMan® reagents were from PE Applied Biosystems. Such an assay procedure was described in detail in e.g. Malcolm et al., Antimicrobial Agents and Chemotherapy 50: 1013-1020 (2006).
(§3) Wherein gt1a_H77 was prepared as described in Yi et al., J Virol. 2004, 78(15):7904-15; gt1b_con1 was prepared as described in Lohmann et al., Science 1999, 285(5424):110-3; and gt2a_JFH was prepared as described in Kato et al., Gastroenterology. 2003, 125(6):1808-17. Chimeric replicons contain NS5A from patient isolates of genotypes 1a, 1b, 2b, 3a and 4a as indicated.

[2] = tested on: HCV replicon gt2a_JFH; experiment: Cell-based HCV replicon assay (TaqMan), genotype 2a (JFH); details: Hepatitis C virus, 72 h, replicon 2a (JFH); replicon RNA by TaqMan, day 3
Description: as §1, §2, §3

[3] = tested on: HCV replicon gt1a_H77; experiment: Cell-based HCV replicon assay (TaqMan), genotype 1a (H77); details: Hepatitis C virus, 72 h, replicon 1a (H77); replicon RNA by TaqMan, day 3
Description: as §1, §2, §3

[4] = tested on: HCV replicon 1a (Y93H) mutant; experiment: Cell-based HCV replicon assay (TaqMan), genotype 1a mutant Y93H; details: Hepatitis C virus, 72 h, read-out: HCV replicon EC50 1a (Y93H)
Description: as §1, §2, §3

[5] = tested on: HCV chimeric replicon with NS5A of genotype 3a (NC00982); experiment: Cell-based HCV replicon assay (TaqMan), chimeric replicon genotype 3a (NC00982); details: Hepatitis C virus, 72 h, read-out: HCV replicon EC50 3a (NC00982), chimeric replicon 3a (NC00982); replicon RNA by TaqMan, day 3
Description: as §1, §2, §3

[6] = tested on: HCV replicon 1a (L31V) mutant; experiment: Cell-based HCV replicon assay (TaqMan), genotype 1a mutant L31V; details: Hepatitis C virus, 72 h, read-out: HCV replicon EC50 1a (L31V)
Description: as §1, §2, §3

[7] = tested on: HCV replicon gt1b_con1; experiment: Cell-based HCV replicon assay (TaqMan), genotype 1b (Con1); details: Hepatitis C virus, 72 h; replicon 1b (Con1); replicon RNA by TaqMan, day 3
Description: as §1, §2, §3

SMILES | EC50 [1] [nM] | EC50 [2] [nM] | EC50 [3] [nM] | EC50 [4] [nM] | EC50 [5] [nM] | EC50 [6] [nM] | EC50 [7] [nM]
COC(=O)N[C@H](C(=O)N1CC(F)C[C@H]1c1ncc(-c2ccc(-c3ccc4c(ccc5nc([C@@H]6C[Si](C)(C)CN6C(=O)[C@@H](NC(=O)OC)C(C)C)[nH]c54)c3)cc2)[nH]1)C(C)C (stereo partly drawn) [Compound 55] | 0.35 | 0.15 | 0.07 | 27 | 0.8 | 62 | 0.006
COCCOC(=O)N[C@H](C(=O)N1CCC(F)(F)C[C@H]1c1ncc(-c2ccc(-c3ccc4c(ccc5nc([C@@H]6C[Si](C)(C)CN6C(=O)[C@@H](NC(=O)OCCOC)C(C)C)[nH]c54)c3)cc2)[nH]1)C(C)C [Compound 87] | > 100 | > 10 | > 1 | > 1000 | > 100 | > 1000 | 2.5
COC(=O)N[C@@H](C)C(=O)N1C[Si](C)(C)C[C@H]1c1ncc(-c2ccc(-c3ccc4c(ccc5nc([C@@H]6CC(F)(F)CN6C(=O)[C@@H](NC(=O)OC)C(C)C)[nH]c54)c3)cc2)[nH]1 [Compound 106] | 0.429 | 0.046 | 0.016 | 52.6 | 0.435 | 37.1 | 0.006
CC(C)[C@H](NC(=O)OC1(C)CC1)C(=O)N1CCC(F)(F)C[C@H]1c1ncc(-c2ccc(-c3ccc4c(ccc5nc([C@@H]6C[Si](C)(C)CN6C(=O)[C@@H](NC(=O)OC6(C)CC6)C(C)C)[nH]c54)c3)cc2)[nH]1 [Compound 86] | > 100 | > 10 | > 1 | > 1000 | > 100 | > 1000 | 141
COC(=O)N[C@H](C(=O)N1CC(F)(F)C[C@H]1c1ncc(-c2ccc(-c3ccc4c(ccc5nc([C@@H]6C[Si](C)(C)CN6C(=O)[C@@H](NC(=O)OC)C(C)C)[nH]c54)c3)c(F)c2)[nH]1)C(C)C [Compound 60] | 0.129 | 0.09 | 0.06 | 96 | 2.9 |  | 0.003
COC(=O)N[C@H](C(=O)N1CC(F)(F)C[C@H]1c1nc2ccc3cc(-c4ccc(-c5cnc([C@@H]6C[Si](C)(C)CN6C(=O)[C@@H](NC(=O)OC)C6CC6)[nH]5)cc4)ccc3c2[nH]1)C(C)C [Compound 105] | 0.18 | 0.141 | 0.021 | 151 | 0.17 | 43 | 0.003
CC(C)[C@H](NC(=O)OC1(C)CC1)C(=O)N1C[Si](C)(C)C[C@@H]1c1ncc(-c2ccc(-c3ccc4c(ccc5nc([C@H]6C[C@H](F)CN6C(=O)[C@@H](NC(=O)OC6(C)CC6)C(C)C)[nH]c54)c3)c(F)c2)[nH]1 [Compound 83] | > 100 | > 10 | > 1 | > 1000 | > 100 |  | 52
COC(=O)N[C@H](C(=O)N1C[Si](C)(C)C[C@H]1c1ncc(-c2ccc(-c3ccc4c(ccc5nc([C@@H]6C[C@@H](F)CN6C(=O)[C@@H](NC(=O)OC)C(C)C)[nH]c54)c3)c(F)c2)[nH]1)C(C)C [Compound 57] | 0.652 | 0.069 | 0.068 | 50 | 0.798 |  | < 0.05
CC(C)OC(=O)N[C@H](C(=O)N1C[Si](C)(C)C[C@@H]1c1ncc(-c2ccc(-c3ccc4c(ccc5nc([C@H]6C[C@H](F)CN6C(=O)[C@@H](NC(=O)OC(C)C)C(C)C)[nH]c54)c3)c(F)c2)[nH]1)C(C)C [Compound 84] | > 100 | > 10 | > 1 | > 1000 | > 100 |  | 2.4
COC(=O)N[C@H](C(=O)N1C[Si](C)(C)C[C@@H]1c1nc2ccc3cc(-c4ccc(-c5cnc([C@@H]6CC(C)(C)CN6C(=O)[C@@H](NC(=O)OC)C(C)C)[nH]5)cc4)ccc3c2[nH]1)C(C)C [Compound 79] | 0.45 | 0.315 | 0.127 | 351 | 4.4 |  | 0.012
COC(=O)N[C@H](C(=O)N1C[Si](C)(C)C[C@H]1c1ncc(-c2ccc(-c3ccc4c(ccc5nc([C@@H]6CC(F)CN6C(=O)[C@@H](NC(=O)OC)C(C)C)[nH]c54)c3)cc2)[nH]1)C(C)C (stereo partly drawn) [Compound 53] | 0.1 | 0.026 | 0.016 | 10 | 0.09 | 64 | 0.003
COC(=O)N[C@H](C(=O)N1C[Si]2(CCCC2)C[C@H]1c1ncc(-c2ccc(-c3ccc4c(ccc5nc([C@@H]6CCCN6C(=O)[C@@H](NC(=O)OC)C(C)C)[nH]c54)c3)cc2)[nH]1)C(C)C [Compound 61] | 0.076 | 0.005 | 0.06 | 350 | 0.2 |  | 0.005
COC(=O)N[C@H](C(=O)N1CC(F)(F)C[C@H]1c1nc2ccc3cc(-c4ccc5c(ccc6nc([C@@H]7C[Si](C)(C)CN7C(=O)[C@@H](NC(=O)OC)C(C)C)[nH]c65)c4)ccc3c2[nH]1)C(C)C [Compound 70] | 0.077 | 0.04 | 0.012 | 25 | 0.118 |  | 0.007
CC(C)OC(=O)N[C@H](C(=O)N1CCC(F)(F)C[C@H]1c1ncc(-c2ccc(-c3ccc4c(ccc5nc([C@@H]6C[Si](C)(C)CN6C(=O)[C@@H](NC(=O)OC(C)C)C(C)C)[nH]c54)c3)cc2)[nH]1)C(C)C [Compound 88] | > 100 | > 10 | > 1 | > 1000 | > 100 | > 1000 | 4
COC(=O)N[C@H](C(=O)N1C[Si](C)(C)C[C@H]1c1nc2ccc3cc(-c4ccc(-c5cnc([C@@H]6[C@@H]7C[C@@H]([C@@H](F)[C@H]7F)N6C(=O)[C@@H](NC(=O)OC6(C)CC6)C(C)C)[nH]5)cc4)ccc3c2[nH]1)C(C)C [Compound 101] | > 100 | > 10 | > 1 | > 1000 | 54.6 | > 1000 | 0.023
COC(=O)N[C@H](C(=O)N1C[Si](C)(C)C[C@H]1c1ncc(-c2ccc(-c3ccc4c(ccc5nc([C@H]6[C@@H]7C[C@@H]([C@@H](F)[C@H]7F)N6C(=O)[C@@H](NC(=O)OC)C(C)C)[nH]c54)c3)cc2)[nH]1)C(C)C [Compound 102] | 0.3 | 0.097 | 0.084 | 438 | 7.5 | 113 | < 2
COC(=O)N[C@H](C(=O)N1CCS(=O)(=O)CC1c1ncc(-c2ccc(-c3ccc4c(ccc5nc([C@@H]6C[Si](C)(C)CN6C(=O)[C@@H](NC(=O)OC)C(C)C)[nH]c54)c3)cc2)[nH]1)C(C)C (stereo partly drawn) [Compound 67] | 0.5 | 0.16 | 0.19 | 380 | 5 |  | 0.011
CC(C)[C@H](NC(=O)OC1(C)CC1)C(=O)N1CC(C)(C)C[C@H]1c1ncc(-c2ccc(-c3ccc4c(ccc5nc([C@@H]6C[Si](C)(C)CN6C(=O)[C@@H](NC(=O)OC6(C)CC6)C(C)C)[nH]c54)c3)cc2)[nH]1 [Compound 80] | > 100 | > 10 | > 1 | > 1000 | > 100 |  | > 1
